In PubChem BioAssay AID2060508 (Molecular Pharmacology Branch, DTP, NCI, 2025) one finds viability, T/C data, which are given here for four molecules.
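Note: spheroids exposed to compounds for seven days; 100% = DMSO vehicle control viability.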

In one assay the test system is 454973-116-R2-J3-PDC spheroids, viability, % test/control. The assay is described as follows: Anticancer human tumor 454973-116-R2-J3-PDC patient-derived pancreatic carcinoma cell line growth inhibition [GQUAD]. As to conditions: second compound 0.0316 µM; first compound 3.16 µM; hits give low values; spheroids with HUVEC and MSC. The method in brief: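 Viability of tumor cells grown as complex spheroids with endothelial and stromal cells, exposed to drug combinations. Top concentration at or near clinical Cmax (else 10 microM), diluted in half-log increments.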
For `Cc1cccc(N(C)C(=O)C2C(O)CCN2c2nc(C)cc(C(F)(F)F)c2C#N)c1` (configuration not stated) + Cc1cnc(CNC(=O)c2c(=O)c3ccc(N4CCCN(C)CC4)nc3n3c2sc2ccccc23)cn1, the viability, T/C is 108%.

For `O=C(c1cc(Cc2n[nH]c(=O)c3ccccc23)ccc1F)N1CCN(C(=O)C2CC2)CC1` + Cc1cnc(CNC(=O)c2c(=O)c3ccc(N4CCCN(C)CC4)nc3n3c2sc2ccccc23)cn1, the viability, T/C is 80.9%.

The same assay, now with this note: second compound 0.0316 µM; first compound 10 µM; hits give low values; spheroids with HUVEC and MSC.
Turning to `C=CC(=O)N1CCN(c2nc(=O)n(-c3c(C)ccnc3C(C)C)c3nc(-c4c(O)cccc4F)c(F)cc23)C(C)C1` (configuration not stated) + Cc1cnc(CNC(=O)c2c(=O)c3ccc(N4CCCN(C)CC4)nc3n3c2sc2ccccc23)cn1, the viability, T/C was 118%.

For `CC(C)n1c(=O)n(C)c2cnc3cc(F)c(-c4ccc(OCCCN5CCCCC5)nc4)cc3c21` + Cc1cnc(CNC(=O)c2c(=O)c3ccc(N4CCCN(C)CC4)nc3n3c2sc2ccccc23)cn1, the viability, T/C is 52.3%.

Take `Cc1cccc(N(C)C(=O)C2C(O)CCN2c2nc(C)cc(C(F)(F)F)c2C#N)c1` (configuration not stated) + Cc1cnc(CNC(=O)c2c(=O)c3ccc(N4CCCN(C)CC4)nc3n3c2sc2ccccc23)cn1: the viability, T/C is 93.4%.

As for `O=C(c1cc(Cc2n[nH]c(=O)c3ccccc23)ccc1F)N1CCN(C(=O)C2CC2)CC1` + Cc1cnc(CNC(=O)c2c(=O)c3ccc(N4CCCN(C)CC4)nc3n3c2sc2ccccc23)cn1, the viability, T/C was 46.5%.

The assay is the same for the next values; noted with them: second compound 0.1 µM; first compound 0.0316 µM; hits give low values; spheroids with HUVEC and MSC.
Take `C=CC(=O)N1CCN(c2nc(=O)n(-c3c(C)ccnc3C(C)C)c3nc(-c4c(O)cccc4F)c(F)cc23)C(C)C1` (configuration not stated) + Cc1cnc(CNC(=O)c2c(=O)c3ccc(N4CCCN(C)CC4)nc3n3c2sc2ccccc23)cn1: the viability, T/C is 78.1%.

In the case of `CC(C)n1c(=O)n(C)c2cnc3cc(F)c(-c4ccc(OCCCN5CCCCC5)nc4)cc3c21` + Cc1cnc(CNC(=O)c2c(=O)c3ccc(N4CCCN(C)CC4)nc3n3c2sc2ccccc23)cn1, the viability, T/C was 43%.

Regarding `Cc1cccc(N(C)C(=O)C2C(O)CCN2c2nc(C)cc(C(F)(F)F)c2C#N)c1` (configuration not stated) + Cc1cnc(CNC(=O)c2c(=O)c3ccc(N4CCCN(C)CC4)nc3n3c2sc2ccccc23)cn1, the viability, T/C is 88.2%.

On to `O=C(c1cc(Cc2n[nH]c(=O)c3ccccc23)ccc1F)N1CCN(C(=O)C2CC2)CC1` + Cc1cnc(CNC(=O)c2c(=O)c3ccc(N4CCCN(C)CC4)nc3n3c2sc2ccccc23)cn1, for which the viability, T/C was 81.1%.

The assay is the same for the next values; noted with them: second compound 0.1 µM; first compound 0.1 µM; hits give low values; spheroids with HUVEC and MSC.
For the molecule `C=CC(=O)N1CCN(c2nc(=O)n(-c3c(C)ccnc3C(C)C)c3nc(-c4c(O)cccc4F)c(F)cc23)C(C)C1` (configuration not stated) + Cc1cnc(CNC(=O)c2c(=O)c3ccc(N4CCCN(C)CC4)nc3n3c2sc2ccccc23)cn1, the viability, T/C was 80.1%.

Consider `CC(C)n1c(=O)n(C)c2cnc3cc(F)c(-c4ccc(OCCCN5CCCCC5)nc4)cc3c21` + Cc1cnc(CNC(=O)c2c(=O)c3ccc(N4CCCN(C)CC4)nc3n3c2sc2ccccc23)cn1, for which the viability, T/C is 35.6%.

In the case of `Cc1cccc(N(C)C(=O)C2C(O)CCN2c2nc(C)cc(C(F)(F)F)c2C#N)c1` (configuration not stated) + Cc1cnc(CNC(=O)c2c(=O)c3ccc(N4CCCN(C)CC4)nc3n3c2sc2ccccc23)cn1, the viability, T/C was 74.3%.

`O=C(c1cc(Cc2n[nH]c(=O)c3ccccc23)ccc1F)N1CCN(C(=O)C2CC2)CC1` + Cc1cnc(CNC(=O)c2c(=O)c3ccc(N4CCCN(C)CC4)nc3n3c2sc2ccccc23)cn1: the viability, T/C was 80.4%.

The assay is the same for the next values; noted with them: second compound 0.1 µM; first compound 0.316 µM; hits give low values; spheroids with HUVEC and MSC.
Regarding `C=CC(=O)N1CCN(c2nc(=O)n(-c3c(C)ccnc3C(C)C)c3nc(-c4c(O)cccc4F)c(F)cc23)C(C)C1` (configuration not stated) + Cc1cnc(CNC(=O)c2c(=O)c3ccc(N4CCCN(C)CC4)nc3n3c2sc2ccccc23)cn1, the viability, T/C was 87.6%.

As to `CC(C)n1c(=O)n(C)c2cnc3cc(F)c(-c4ccc(OCCCN5CCCCC5)nc4)cc3c21` + Cc1cnc(CNC(=O)c2c(=O)c3ccc(N4CCCN(C)CC4)nc3n3c2sc2ccccc23)cn1, the viability, T/C is 36.5%.

As for `Cc1cccc(N(C)C(=O)C2C(O)CCN2c2nc(C)cc(C(F)(F)F)c2C#N)c1` (configuration not stated) + Cc1cnc(CNC(=O)c2c(=O)c3ccc(N4CCCN(C)CC4)nc3n3c2sc2ccccc23)cn1, the viability, T/C was 71.9%.

On to `O=C(c1cc(Cc2n[nH]c(=O)c3ccccc23)ccc1F)N1CCN(C(=O)C2CC2)CC1` + Cc1cnc(CNC(=O)c2c(=O)c3ccc(N4CCCN(C)CC4)nc3n3c2sc2ccccc23)cn1, for which the viability, T/C is 72.2%.

Still in this assay, the particulars now being: second compound 0.1 µM; first compound 1 µM; hits give low values; spheroids with HUVEC and MSC.
For the molecule `C=CC(=O)N1CCN(c2nc(=O)n(-c3c(C)ccnc3C(C)C)c3nc(-c4c(O)cccc4F)c(F)cc23)C(C)C1` (configuration not stated) + Cc1cnc(CNC(=O)c2c(=O)c3ccc(N4CCCN(C)CC4)nc3n3c2sc2ccccc23)cn1, the viability, T/C is 96.9%.

In the case of `CC(C)n1c(=O)n(C)c2cnc3cc(F)c(-c4ccc(OCCCN5CCCCC5)nc4)cc3c21` + Cc1cnc(CNC(=O)c2c(=O)c3ccc(N4CCCN(C)CC4)nc3n3c2sc2ccccc23)cn1, the viability, T/C is 33.6%.

Turning to `Cc1cccc(N(C)C(=O)C2C(O)CCN2c2nc(C)cc(C(F)(F)F)c2C#N)c1` (configuration not stated) + Cc1cnc(CNC(=O)c2c(=O)c3ccc(N4CCCN(C)CC4)nc3n3c2sc2ccccc23)cn1, the viability, T/C was 68.7%.

Consider `O=C(c1cc(Cc2n[nH]c(=O)c3ccccc23)ccc1F)N1CCN(C(=O)C2CC2)CC1` + Cc1cnc(CNC(=O)c2c(=O)c3ccc(N4CCCN(C)CC4)nc3n3c2sc2ccccc23)cn1, for which the viability, T/C was 65.5%.

The same assay, now with this note: second compound 0.1 µM; first compound 3.16 µM; hits give low values; spheroids with HUVEC and MSC.
Take `C=CC(=O)N1CCN(c2nc(=O)n(-c3c(C)ccnc3C(C)C)c3nc(-c4c(O)cccc4F)c(F)cc23)C(C)C1` (configuration not stated) + Cc1cnc(CNC(=O)c2c(=O)c3ccc(N4CCCN(C)CC4)nc3n3c2sc2ccccc23)cn1: the viability, T/C was 104%.

For `CC(C)n1c(=O)n(C)c2cnc3cc(F)c(-c4ccc(OCCCN5CCCCC5)nc4)cc3c21` + Cc1cnc(CNC(=O)c2c(=O)c3ccc(N4CCCN(C)CC4)nc3n3c2sc2ccccc23)cn1, the viability, T/C was 39.5%.

Consider `Cc1cccc(N(C)C(=O)C2C(O)CCN2c2nc(C)cc(C(F)(F)F)c2C#N)c1` (configuration not stated) + Cc1cnc(CNC(=O)c2c(=O)c3ccc(N4CCCN(C)CC4)nc3n3c2sc2ccccc23)cn1, for which the viability, T/C was 70.2%.

As for `O=C(c1cc(Cc2n[nH]c(=O)c3ccccc23)ccc1F)N1CCN(C(=O)C2CC2)CC1` + Cc1cnc(CNC(=O)c2c(=O)c3ccc(N4CCCN(C)CC4)nc3n3c2sc2ccccc23)cn1, the viability, T/C was 65.8%.

The same assay, now with this note: second compound 0.1 µM; first compound 10 µM; hits give low values; spheroids with HUVEC and MSC.
As for `C=CC(=O)N1CCN(c2nc(=O)n(-c3c(C)ccnc3C(C)C)c3nc(-c4c(O)cccc4F)c(F)cc23)C(C)C1` (configuration not stated) + Cc1cnc(CNC(=O)c2c(=O)c3ccc(N4CCCN(C)CC4)nc3n3c2sc2ccccc23)cn1, the viability, T/C was 97.1%.

With `CC(C)n1c(=O)n(C)c2cnc3cc(F)c(-c4ccc(OCCCN5CCCCC5)nc4)cc3c21` + Cc1cnc(CNC(=O)c2c(=O)c3ccc(N4CCCN(C)CC4)nc3n3c2sc2ccccc23)cn1, the viability, T/C is 32.7%.

Take `Cc1cccc(N(C)C(=O)C2C(O)CCN2c2nc(C)cc(C(F)(F)F)c2C#N)c1` (configuration not stated) + Cc1cnc(CNC(=O)c2c(=O)c3ccc(N4CCCN(C)CC4)nc3n3c2sc2ccccc23)cn1: the viability, T/C is 69.9%.

For the molecule `O=C(c1cc(Cc2n[nH]c(=O)c3ccccc23)ccc1F)N1CCN(C(=O)C2CC2)CC1` + Cc1cnc(CNC(=O)c2c(=O)c3ccc(N4CCCN(C)CC4)nc3n3c2sc2ccccc23)cn1, the viability, T/C was 44.5%.

The same assay, now with this note: second compound 0.316 µM; first compound 0.0316 µM; hits give low values; spheroids with HUVEC and MSC.
Turning to `C=CC(=O)N1CCN(c2nc(=O)n(-c3c(C)ccnc3C(C)C)c3nc(-c4c(O)cccc4F)c(F)cc23)C(C)C1` (configuration not stated) + Cc1cnc(CNC(=O)c2c(=O)c3ccc(N4CCCN(C)CC4)nc3n3c2sc2ccccc23)cn1, the viability, T/C was 79.2%.

For the molecule `CC(C)n1c(=O)n(C)c2cnc3cc(F)c(-c4ccc(OCCCN5CCCCC5)nc4)cc3c21` + Cc1cnc(CNC(=O)c2c(=O)c3ccc(N4CCCN(C)CC4)nc3n3c2sc2ccccc23)cn1, the viability, T/C was 45.5%.

With `Cc1cccc(N(C)C(=O)C2C(O)CCN2c2nc(C)cc(C(F)(F)F)c2C#N)c1` (configuration not stated) + Cc1cnc(CNC(=O)c2c(=O)c3ccc(N4CCCN(C)CC4)nc3n3c2sc2ccccc23)cn1, the viability, T/C was 74.5%.

For the molecule `O=C(c1cc(Cc2n[nH]c(=O)c3ccccc23)ccc1F)N1CCN(C(=O)C2CC2)CC1` + Cc1cnc(CNC(=O)c2c(=O)c3ccc(N4CCCN(C)CC4)nc3n3c2sc2ccccc23)cn1, the viability, T/C is 69.1%.

The same assay, now with this note: second compound 0.316 µM; first compound 0.1 µM; hits give low values; spheroids with HUVEC and MSC.
Turning to `C=CC(=O)N1CCN(c2nc(=O)n(-c3c(C)ccnc3C(C)C)c3nc(-c4c(O)cccc4F)c(F)cc23)C(C)C1` (configuration not stated) + Cc1cnc(CNC(=O)c2c(=O)c3ccc(N4CCCN(C)CC4)nc3n3c2sc2ccccc23)cn1, the viability, T/C is 79.6%.

For `CC(C)n1c(=O)n(C)c2cnc3cc(F)c(-c4ccc(OCCCN5CCCCC5)nc4)cc3c21` + Cc1cnc(CNC(=O)c2c(=O)c3ccc(N4CCCN(C)CC4)nc3n3c2sc2ccccc23)cn1, the viability, T/C is 49%.

Regarding `Cc1cccc(N(C)C(=O)C2C(O)CCN2c2nc(C)cc(C(F)(F)F)c2C#N)c1` (configuration not stated) + Cc1cnc(CNC(=O)c2c(=O)c3ccc(N4CCCN(C)CC4)nc3n3c2sc2ccccc23)cn1, the viability, T/C was 71.5%.

Consider `O=C(c1cc(Cc2n[nH]c(=O)c3ccccc23)ccc1F)N1CCN(C(=O)C2CC2)CC1` + Cc1cnc(CNC(=O)c2c(=O)c3ccc(N4CCCN(C)CC4)nc3n3c2sc2ccccc23)cn1, for which the viability, T/C was 67.4%.

Staying with this assay, now noted: second compound 0.316 µM; first compound 0.316 µM; hits give low values; spheroids with HUVEC and MSC.
In the case of `C=CC(=O)N1CCN(c2nc(=O)n(-c3c(C)ccnc3C(C)C)c3nc(-c4c(O)cccc4F)c(F)cc23)C(C)C1` (configuration not stated) + Cc1cnc(CNC(=O)c2c(=O)c3ccc(N4CCCN(C)CC4)nc3n3c2sc2ccccc23)cn1, the viability, T/C is 71.1%.

As to `CC(C)n1c(=O)n(C)c2cnc3cc(F)c(-c4ccc(OCCCN5CCCCC5)nc4)cc3c21` + Cc1cnc(CNC(=O)c2c(=O)c3ccc(N4CCCN(C)CC4)nc3n3c2sc2ccccc23)cn1, the viability, T/C is 38.7%.

Consider `Cc1cccc(N(C)C(=O)C2C(O)CCN2c2nc(C)cc(C(F)(F)F)c2C#N)c1` (configuration not stated) + Cc1cnc(CNC(=O)c2c(=O)c3ccc(N4CCCN(C)CC4)nc3n3c2sc2ccccc23)cn1, for which the viability, T/C is 71.3%.

Consider `O=C(c1cc(Cc2n[nH]c(=O)c3ccccc23)ccc1F)N1CCN(C(=O)C2CC2)CC1` + Cc1cnc(CNC(=O)c2c(=O)c3ccc(N4CCCN(C)CC4)nc3n3c2sc2ccccc23)cn1, for which the viability, T/C is 61.7%.

Usually viability, T/C stands for the result in the treated group divided by that in the control group, in per cent.
